Assay results taken from patent US11083696B2, “Dispersion anaesthetic device” (UNIVERSITY COLLEGE CARDIFF CONSULTANTS LIMITED, priority 2011, dated 2021).
Values belong to the compound of their own block, whether it stands above or below them.

Assays:
[1] = Gelation of liquid anaesthetics by gelators (heat-cool cycles, inversion); format: physicochemical
Description: […] The solubility of the gelator at room temperature was observed by visual inspection, and samples subjected to a series of heat-cool cycles (hot ˜60° C., cold ˜5° C.) until solubility of the gelator was complete (or ceased to improve) and a clear gel was formed on cooling. A final heating cycle was carried out and the samples allowed to cool slowly to room temperature (cooling rate uncontrolled). […] Further inspection was carried out after 24 hours, and no difference in results was observed. On storage, sealed samples remain gelled for at least 12 months.
A series of gelators were investigated with chain lengths […] corresponding to gelators G3-G8.

[2] = Release into carrier gas, testing chamber 1 (60 ml glass jar, anaesthetic monitor); format: physicochemical; conditions: for Sevo % @ 30 s / time to 0% Sevo/s: HPFP only, No N2 flow
Description: Specifically, a 60 ml glass jar fitted with septum, N2 inlet and 1 ml syringe (open to air). Typically tests used a 3 ml sample or equivalent with respect to anaesthetic content. Headspace concentrations were sampled from gas flow out (no recirculation) and measured with a standard anaesthetic monitor using a balloon to provide a nitrogen atmosphere or with or 2 L min^−1 N2 passed over or bubbled through sample;
The formulations described in Tables 1-4 were tested using testing chamber 1, the experimental set-up for which is described in FIG. 1a, by addition of an appropriate quantity of formulation to a 60 ml glass jar fitted with septum, N2 inlet and (needle free) 1 ml syringe (open to air) via a plastic tube from within which the outflow gas was continuously sampled and monitored for anaesthetic concentration. Typically a 3 ml sample was used, or an equivalent amount with respect to anaesthetic content. A balloon was used to provide a nitrogen atmosphere with no flow-through, or a continuous flow of nitrogen as a carrier gas was passed over or bubbled through the sample at a controlled flow-rate. Headspace fluorocarbon concentrations were sampled from gas outflow (no recirculation) and measured using a standard anaesthetic monitor (Capnomac Ultima, Datex Instrumentarium Inc., Heslinki, Finland), monitoring on either sevoflurane or isoflurane settings, depending on the anaesthetic in the formulation.

[3] = test system: reaction to a standard surgical stimulus (skin incision); conditions: average adult male at age 40 years; 1 atmosphere; cited from earlier work
[4] = 1 wt % gelator after 2x heat-cool cycling
[5] = 1st value column (amount equivalent to J1)
[6] = 3rd value column (amount equivalent to J5)

- gelation of sevoflurane at lower gelator concentration ([1]; 0.1 wt % gelator): without success
- Gel state of anaesthetic: Desfluorane [1, 4]: Yes
- Gel state of anaesthetic: Isoflurane [1, 4]: No^†
- Gel state of anaesthetic: Sevoflurane [1, 4]: Good gels and Yes
- gel state of isoflurane ([1]; 1.5 wt % gelator): partially gelled
SMILES: CC(C)OC(=O)[C@@H](O)[C@H](O)CCCCCCCC[C@@H](O)[C@H](O)C(=O)OC(C)C (racemic) [G4]
- gel state of isoflurane ([1]; 2, 3, and 5 wt % gelator): gels and stable isoflurane gels were obtained

SMILES: FC(C(F)C(F)(F)C(F)(F)F)C(F)(F)F (stereo not shown) [HPFP, 2H, 3H-perfluoropentane]
- Time to 0% sevoflurane/s ([2]; 2 l min−1 N2 Over sample, 3 ml HPFP): 220 s
- sevoflurane % @ 30 s ([2]; 2 l min−1 N2 Over sample, 3 ml HPFP, monitored as sevoflurane): 1.6%
- Time to 0% sevoflurane/s ([2]; 2 l min−1 N2 through sample, 3 ml HPFP): <220 s
- Sevo % @ 30 s [2, 5]: 1.9%
- time to 0% Sevo/s [2, 5]: 135 s
- Sevo % @ 30 s ([2]; 2nd value column (equivalent formulation unclear)): 2.0%
- time to 0% Sevo/s ([2]; 2nd value column): 140 s
- Sevo % @ 30 s [2, 6]: 2.8%
- time to 0% Sevo/s [2, 6]: 335 s
- Sevo % @ 30 s ([2]; 4th value column (equivalent formulation unclear)): 2.9%
- time to 0% Sevo/s ([2]; 4th value column): 900 s

SMILES: FC(F)OC(F)C(F)(F)F (stereo not shown) [desflurane]
- MAC value of 1 (release level) [3]: 6 volume %

SMILES: FC(F)OC(F)(F)C(F)Cl (stereo not shown) [enflurane]
- MAC value of 1 (release level) [3]: 1.6 volume %

SMILES: FC(F)(F)C(Cl)Br (stereo not shown) [halothane]
- MAC value of 1 (release level) [3]: 0.76 volume %

SMILES: FC(F)OC(Cl)C(F)(F)F (stereo not shown) [isoflurane]
- MAC value of 1 (release level) [3]: 1.2 volume %

- time of drop to zero anaesthetic concentration ([2]; 3 ml sevoflurane, 2 L min^−1): 15 to 16 min
- plateau sevoflurane concentration in carrier gas ([2]; 3 ml sevoflurane, 2 L min^−1 carrier gas): ~13%
- anaesthetic concentration in the carrier gas outflow stream ([2]; first 10 minutes, 3 ml sevoflurane, 2 L min^−1 through headspace): 13-15%
SMILES: FCOC(C(F)(F)F)C(F)(F)F [sevoflurane]
- MAC value of 1 (release level) [3]: 2 volume %
